Test results published in US5399703A, “Tetrazole derivatives and drugs” (Nippon Shinyaku Company, Limited, priority 1990, dated 1995).
Where two headings read alike, the source gives them in different places.

Key:
[1] = biological target: T1, LTD4 receptor (Cavia porcellus, UniProt Q2NNR5); assay: Leukotriene D4 (LTD4) binding assay (3H-LTD4, guinea pig lung membrane fraction); settings: for IC50: guinea pig lung membrane, 3H-LTD4, 25° C., 1 hour
T1 construct: membrane fraction prepared from the guinea pig lung; from tissue; host or cells: guinea pig lung membrane fraction
T1 sequence (Q2NNR5 1-340): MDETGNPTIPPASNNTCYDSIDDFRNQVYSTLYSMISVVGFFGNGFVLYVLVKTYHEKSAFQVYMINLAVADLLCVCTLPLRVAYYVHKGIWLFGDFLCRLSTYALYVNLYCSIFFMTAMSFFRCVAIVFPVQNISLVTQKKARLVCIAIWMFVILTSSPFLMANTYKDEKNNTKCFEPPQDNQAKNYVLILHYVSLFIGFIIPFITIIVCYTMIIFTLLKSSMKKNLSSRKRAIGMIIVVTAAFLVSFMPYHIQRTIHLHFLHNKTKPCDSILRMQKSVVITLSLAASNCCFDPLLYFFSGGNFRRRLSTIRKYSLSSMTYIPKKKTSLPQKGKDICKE
Description: 1) Leukotriene D4 (LTD4) binding assay
First, 0.2 pmol of ^3 H-LTD4 and 100 μg of the membrane fraction prepared from the guinea pig lung were incubated at 25° C. for 1 hour and then the reaction mixture was filtered through a glass filter. The radioactivity of ^3 H-LTD4 bound to the membrane remaining on the glass filter was determined and this value was regarded as total binding (total).
Similarly, 100 μg of the membrane fraction was incubated with 0.2 pmol of ^3 H-LTD4 in the presence of a large excess of cold LTD4 (0.1 nmol) at 25° C. for 1 hour and the radioactivity of ^3 H-LTD4 bound to the membrane was determined and regarded as nonspecific binding (NSB).
Specific binding (SB) of ^3 H-LTD4 was calculated according to expression (1).
To investigate the effect of the test substance on LTD4 receptor binding, the test substance was added at the determination of total binding and the total binding in the presence of the test substance (total') was determined. The percent inhibition was calculated according to expression (2).
(total-total')/SB×100 (2)

[2] = test system: endogenous LT-induced airway contractile response in guinea pigs; assay: Effect on endogenous leukotriene (LT)-induced experimental asthma; format: in vivo; settings: guinea pig; for ED50: Cavia porcellus
[3] = test system: antigen-induced airway contractile response in guinea pigs; assay: Effect on experimental asthma (antigen-induced airway contractile response); format: in vivo; settings: guinea pig
Description: (4) Effect on experimental asthma
The airway contractile response to intravenous administration of an antigen (benzylpenicilloyl-bovine serum albumin) to guinea pigs passively senstitized with anti-benzylpenicilloyl-bovine gamma globulin guinea pig serum was determined by the Konzett-Rossler method.
The test substance suspended in 0.5% methylcellulose was administered orally and 3 hours later, the airway contractile response caused by antigen-antibody reaction was determined. With the response on complete obstruction of the airway cannula with a clamp taken as 100% contraction, the maximal airway contractile response (expressed in percent) caused by antigen antibody reaction was determined. From this value, the percent inhibition, relative to the control, by the test substance was determined.

CCCc1c(OCC(O)COc2ccc3c(=O)cc(C(=O)O)oc3c2CCC)ccc(C(C)=O)c1O (stereo not drawn) [C, reference compound] was tested, and the IC50 [1] was 3820 nM and the ED50 ([2]; iv, read-out: Endogenous LT-induced experimental asthma ED50 (i.v.)) was 0.2 mg/kg.

In the case of O=C(Nc1ccccc1Sc1ccccc1-c1nnn[nH]1)c1ccc(OCCCCc2ccccc2)cc1 [Example 4, N-[2-[2-(1H-Tetrazol-5-yl)phenylthio]phenyl]-4-(4-phenylbutoxy)benzamide], the IC50 [1] is reported as 35.8 nM and the “Endogenous LT-induced experimental asthma p.o. inhibition (%)” value ([2]; at 30 mg/kg) is reported as 30.9%.

In the case of O=C(O)COc1ccc(C(=O)Nc2ccccc2Sc2ccccc2-c2nnn[nH]2)cc1 [Example 6, 4-[2-[2-(1H-Tetrazol-5-yl)phenylthio]phenylcarbamoyl]phenoxyacetic acid], the inhibition at 10 µM ([1]; at 10^-5 M) is reported as 28.9%, the “Endogenous LT-induced experimental asthma p.o. inhibition (%)” value ([2]; at 0.1 mg/kg) is reported as 36.2% and the “Experimental asthma p.o. inhibition (%)” value ([3]; at 30 mg/kg) is reported as 37.9%.

CCCCCCOc1ccc(C(=O)Nc2ccccc2Sc2ccccc2-c2nnn[nH]2)cc1 [Example 7, N-[2-[2-(1H-Tetrazol-5-yl)phenylthio]phenyl]-4-hexyloxybenzamide] gave an IC50 [1] of 180 nM, an ED50 ([2]; po, 3 hours before antigen, read-out: Endogenous LT-induced experimental asthma p.o. ED50) of 0.111 mg/kg and an ED50 ([3]; Cavia porcellus, po, 3 hours before antigen) of 3.52 mg/kg.

In the case of CCCC/C=C/COc1ccc(C(=O)Nc2ccccc2Sc2ccccc2-c2nnn[nH]2)cc1 [Example 14, (E)-N-[2-[2-(1H-Tetrazol-5-yl)phenylthio]phenyl]-4-(2-heptenyloxy)benzamide], the IC50 [1] is reported as 22 nM and the “Endogenous LT-induced experimental asthma p.o. inhibition (%)” value ([2]; at 30 mg/kg) is reported as 58.3%.

CCCCOC(=O)COc1ccc(C(=O)Nc2ccccc2Sc2ccccc2-c2nnn[nH]2)cc1 [Example 67, Butyl 4-[2-[2-(1H-tetrazol-5-yl)phenylthio]phenylcarbamoyl]phenoxyacetate] was tested, and the IC50 [1] was 3340 nM, the “Endogenous LT-induced experimental asthma p.o. inhibition (%)” value ([2]; at 0.3 mg/kg) was 61.2% and the “Experimental asthma p.o. inhibition (%)” value ([3]; at 10 mg/kg) was 82.6%.

For CCN(CC)C(=O)COC(=O)COc1ccc(C(=O)Nc2ccccc2Sc2ccccc2-c2nnn[nH]2)cc1 [Example 105, N,N-Diethylcarbamoylmethyl 4-[2-[2-(1H-tetrazol-5-yl)phenylthio]phenylcarbamoyl]phenoxyacetate], the IC50 [1] was 18200 nM, the “Endogenous LT-induced experimental asthma p.o. inhibition (%)” value ([2]; at 0.3 mg/kg) was 29.4% and the “Experimental asthma p.o. inhibition (%)” value ([3]; at 10 mg/kg) was 87.9%.
